Assay results taken from patent US20240327351A1, “AMIDE AND ETHER SUBSTITUTED N-(1H-INDOL-7-YL)BENZENESULFONAMIDES AND USES THEREOF” (TRIANA BIOMEDICINES, INC., priority 2021, published 2024).

What was measured:
DCAF15 = DCAF15 (Homo sapiens, UniProt Q66K64); experiment: HTRF competition assay, binary interaction between compounds and DCAF15; type: binding; details: competition with Alexa Fluor 647 tracer, His-tagged DCAF15 complex
Procedure: Example 7: Measurement of Binary Interaction Between Compounds And DCAF15 Using Homogeneous Time Resolved Fluorescence (HTRF)
DCAF15 interactions with test compounds were monitored using HTRF competition assays (Cisbio, Bedford, MA). Test compounds were first collected in a 384-well microplate (cat. #781280, Grenier Bio-One, Monroe, NC) as 10 mM stocks in 100% dimethyl sulfoxide (DMSO). A second stock plate (cat. #781280, Grenier Bio-One, Monroe, NC) was prepared through 3-fold serial dilution in DMSO of the afore-mentioned stocks using a Mosquito HTS dispenser (mosquito@ HTS, SPT Labtech, Boston, MA). 0.2 ul of these diluted stocks were then dispensed into a 384-well Optiplate (cat. #6007290, Perkin Elmer, Waltham, MA) in duplicate wells, to assemble the assay plate. The tracer molecule containing an Alexa Fluor 647 probe was prepared in 25 mM HEPES pH 7.5, 100 mM NaCl, 0.1 mg/ml BSA, 0.005% Tween 20, 0.5 mM TCEP (dilution buffer) to 612 nM (2.04×). Separately, His-tagged DCAF15 complex was prepared at 32 nM (4×) in the dilution buffer, and mAb Anti-6His-Eu cryptate Gold (cat. #61H12KLA, Cisbio, Bedford, MA) at 4× dilution in the detection buffer (cat. #61 DB9RDF, Cisbio, Bedford, MA). These two solutions were mixed and incubated for 15 min at room temperature. 9.8 ul of the tracer solution and 10 ul of the DCAF15/mAb Anti-6His-Eu cryptate Gold mixture were added sequentially to each well in the assay plate. Reaction mixtures with no DCAF15 added were included as positive controls. The final mixture was incubated for an hour at room temperature and spun down briefly before data collection at 615 nm and 666 nm using En Vision 2104 Multilabel Plate Reader (Perkin Elmer, Bedford, MA). Binding was estimated based on ratiometric analysis and titration curves were generated in GraphPad Prism (7.00, GraphPad, La Jolla, CA).

DCAF15/RBM39 = DCAF15/RBM39 (Homo sapiens, UniProt Q14498+Q66K64); experiment: AlphaLISA compound-induced DCAF15-RBM39 ternary complex formation; type: binding; details: His-tagged DCAF15 complex and biotin-carrying RBM39
Procedure: Example 6: Quantitative Evaluation of Compound-Induced Ternary Complex Formation Using Amplified Luminescent Proximity Homogeneous Assay
Compound-induced DCAF15-RBM39 ternary complex formation was monitored using AlphaLISA® assays (Perkin Elmer, Waltham, MA). Test compounds were first collected in a 384-well microplate (cat. #781280, Grenier Bio-One, Monroe, NC) as 2 mM stocks in 100% dimethyl sulfoxide (DMSO). These stocks were then serially diluted in DMSO by 3-fold into a new plate (cat. #781280, Grenier Bio-One, Monroe, NC) using a Mosquito HTS dispenser (mosquito@ HTS, SPT Labtech, Boston, MA). 0.2 ul of these diluted stocks were then dispensed into a 384-well Optiplate (cat. #6007290, Perkin Elmer, Waltham, MA) in duplicate wells, to assemble the final assay plate consisting of duplicated dose ranges. Separately, a protein mixture consisting of His-tagged DCAF15 complex and biotin-carrying RBM39, each at 408 nM (2.04×), was prepared in 50 mM HEPES, pH 7.5, 100 mM NaCl, 2 mM MgCl2, 0.1% BSA, 2 mM TCEP, 0.05% Tween-20 (dilution buffer). 9.8 ul of this protein mixture was then mixed with the compounds in the assay plate and incubated for one hour at room temperature. Reaction mixtures with no compounds added were included as negative controls, while a His-tagged and biotinylated GST protein was included to track general assay performance. Nickel Chelate AlphaLISA Acceptor beads (cat. #AL108M, Perkin Elmer, MA) and AlphaScreen Streptavidin Donor beads (cat. #6760002, Perkin Elmer, Waltham, MA) were prepared separately in the dilution buffer as 4× stocks (80 ug/ml). The beads were then added to the assay plate sequentially with incubation at room temperature for 1-2 hours after each addition. Signals were recorded using EnVision 2104 Multilabel Plate Reader (Perkin Elmer, Waltham, MA) and titration curves were generated in GraphPad Prism (7.00, GraphPad, La Jolla, CA).

SMILES | IC50 (DCAF15) | EC50 (DCAF15/RBM39)
CCN(CC)C(=O)c1ccc(CNC(=O)c2cccc(S(=O)(=O)Nc3ccc(Cl)c4c(Cl)c[nH]c34)c2F)cc1 [Compound 170] | 1000 to 10000 nM | 1000 to 10000 nM
Cc1ccccc1Oc1ccccc1CNC(=O)c1cccc(S(=O)(=O)Nc2ccc(Cl)c3c(Cl)c[nH]c23)c1F [Compound 172] | 1000 to 10000 nM | 1000 to 10000 nM
Cc1ccccc1Oc1ccccc1CNC(=O)c1ccc(S(=O)(=O)Nc2ccc(Cl)c3c(Cl)c[nH]c23)c(F)c1 [Compound 173] | > 100000 nM | > 100000 nM
Cc1cc(CNC(=O)c2cccc(S(=O)(=O)Nc3ccc(Cl)c4c(Cl)c[nH]c34)c2F)nn1C [Compound 174] | 1000 to 10000 nM | < 1000 nM
Cc1cc(CNC(=O)c2ccc(S(=O)(=O)Nc3ccc(Cl)c4c(Cl)c[nH]c34)c(F)c2)nn1C [Compound 175] | 1000 to 10000 nM | < 1000 nM
CCc1nc(CN(C)C(=O)c2cccc(S(=O)(=O)Nc3ccc(Cl)c4c(Cl)c[nH]c34)c2F)no1 [Compound 176] | 1000 to 10000 nM | < 1000 nM
CCc1nc(CN(C)C(=O)c2ccc(S(=O)(=O)Nc3ccc(Cl)c4c(Cl)c[nH]c34)c(F)c2)no1 [Compound 177] | 1000 to 10000 nM | < 1000 nM
Cc1ccnc(CNC(=O)c2cccc(S(=O)(=O)Nc3ccc(Cl)c4c(Cl)c[nH]c34)c2F)c1 [Compound 178] | 1000 to 10000 nM | 1000 to 10000 nM
Cc1ccnc(CNC(=O)c2ccc(S(=O)(=O)Nc3ccc(Cl)c4c(Cl)c[nH]c34)c(F)c2)c1 [Compound 179] | 1000 to 10000 nM | < 1000 nM
COc1cccc(Oc2ccc(CNC(=O)c3cccc(S(=O)(=O)Nc4ccc(Cl)c5c(Cl)c[nH]c45)c3F)cn2)c1 [Compound 181] | 1000 to 10000 nM | 1000 to 10000 nM
COc1cccc(Oc2ccc(CNC(=O)c3ccc(S(=O)(=O)Nc4ccc(Cl)c5c(Cl)c[nH]c45)c(F)c3)cn2)c1 [Compound 182] | > 100000 nM | > 100000 nM
Cc1cnc(CNC(=O)c2ccc(S(=O)(=O)Nc3ccc(Cl)c4c(Cl)c[nH]c34)c(F)c2)cn1 [Compound 184] | < 1000 nM | > 100000 nM
O=C(NCCOCC1CC1)c1ccc(S(=O)(=O)Nc2ccc(Cl)c3c(Cl)c[nH]c23)c(F)c1 [Compound 187] | 1000 to 10000 nM | < 1000 nM
O=C(NCCOC1CCS(=O)(=O)CC1)c1cccc(S(=O)(=O)Nc2ccc(Cl)c3c(Cl)c[nH]c23)c1F [Compound 188] | 1000 to 10000 nM | < 1000 nM
O=C(NCCOC1CCS(=O)(=O)CC1)c1ccc(S(=O)(=O)Nc2ccc(Cl)c3c(Cl)c[nH]c23)c(F)c1 [Compound 189] | < 1000 nM | < 1000 nM
CCS(=O)(=O)CCNC(=O)c1cccc(S(=O)(=O)Nc2ccc(Cl)c3c(Cl)c[nH]c23)c1F [Compound 190] | 1000 to 10000 nM | < 1000 nM
CCS(=O)(=O)CCNC(=O)c1ccc(S(=O)(=O)Nc2ccc(Cl)c3c(Cl)c[nH]c23)c(F)c1 [Compound 191] | < 1000 nM | < 1000 nM
CN1CC(CCNC(=O)c2ccc(S(=O)(=O)Nc3ccc(Cl)c4c(Cl)c[nH]c34)c(F)c2)C1 [Compound 193] | 1000 to 10000 nM | < 1000 nM
CN(C)C(=O)c1ccc(CCNC(=O)c2ccc(S(=O)(=O)Nc3ccc(Cl)c4c(Cl)c[nH]c34)c(F)c2)cc1 [Compound 195] | 1000 to 10000 nM | 1000 to 10000 nM
CN(C)C(=O)C[C@H](NC(=O)c1ccc(S(=O)(=O)Nc2ccc(Cl)c3c(Cl)c[nH]c23)c(F)c1)c1ccccc1 [Compound 197] | 1000 to 10000 nM | < 1000 nM
Cc1ccc(CCNC(=O)c2cccc(S(=O)(=O)Nc3ccc(Cl)c4c(Cl)c[nH]c34)c2F)o1 [Compound 198] | 1000 to 10000 nM | 1000 to 10000 nM
Cc1ccc(CCNC(=O)c2ccc(S(=O)(=O)Nc3ccc(Cl)c4c(Cl)c[nH]c34)c(F)c2)o1 [Compound 199] | 1000 to 10000 nM | 1000 to 10000 nM
O=C(NCCc1ccccn1)c1cccc(S(=O)(=O)Nc2ccc(Cl)c3c(Cl)c[nH]c23)c1F [Compound 200] | < 1000 nM | < 1000 nM
O=C(NCCCOCc1ccccc1)c1cccc(S(=O)(=O)Nc2ccc(Cl)c3c(Cl)c[nH]c23)c1F [Compound 204] | 1000 to 10000 nM | 1000 to 10000 nM
O=C(NCCCOCc1ccccc1)c1ccc(S(=O)(=O)Nc2ccc(Cl)c3c(Cl)c[nH]c23)c(F)c1 [Compound 205] | > 100000 nM | < 1000 nM
O=C(NCCCC(=O)N1CCCC1)c1cccc(S(=O)(=O)Nc2ccc(Cl)c3c(Cl)c[nH]c23)c1F [Compound 206] | < 1000 nM | < 1000 nM
CC[C@H](NC(=O)c1cccc(S(=O)(=O)Nc2ccc(Cl)c3c(Cl)c[nH]c23)c1F)c1ccc2c(c1)OCCO2 [Compound 210] | 1000 to 10000 nM | 1000 to 10000 nM
CC[C@H](NC(=O)c1ccc(S(=O)(=O)Nc2ccc(Cl)c3c(Cl)c[nH]c23)c(F)c1)c1ccc2c(c1)OCCO2 [Compound 211] | 1000 to 10000 nM | 1000 to 10000 nM

Results, then the compound that gave them:

IC50 (DCAF15) | EC50 (DCAF15/RBM39) | SMILES
1000 to 10000 nM | 1000 to 10000 nM | CCN(CC)C(=O)c1ccc(CNC(=O)c2ccc(S(=O)(=O)Nc3ccc(Cl)c4c(Cl)c[nH]c34)c(F)c2)cc1 [Compound 171]
1000 to 10000 nM | 1000 to 10000 nM | Cc1ccnc([C@@H](NC(=O)c2ccc(S(=O)(=O)Nc3ccc(Cl)c4c(Cl)c[nH]c34)c(F)c2)C2CC2)c1 [Compound 180]
1000 to 10000 nM | < 1000 nM | Cc1cnc(CNC(=O)c2cccc(S(=O)(=O)Nc3ccc(Cl)c4c(Cl)c[nH]c34)c2F)cn1 [Compound 183]
1000 to 10000 nM | 1000 to 10000 nM | Cc1ccnc([C@@H](NC(=O)c2cccc(S(=O)(=O)Nc3ccc(Cl)c4c(Cl)c[nH]c34)c2F)C2CC2)c1 [Compound 185]
1000 to 10000 nM | 1000 to 10000 nM | O=C(NCCOCC1CC1)c1cccc(S(=O)(=O)Nc2ccc(Cl)c3c(Cl)c[nH]c23)c1F [Compound 186]
< 1000 nM | < 1000 nM | CN1CC(CCNC(=O)c2cccc(S(=O)(=O)Nc3ccc(Cl)c4c(Cl)c[nH]c34)c2F)C1 [Compound 192]
1000 to 10000 nM | 1000 to 10000 nM | CN(C)C(=O)c1ccc(CCNC(=O)c2cccc(S(=O)(=O)Nc3ccc(Cl)c4c(Cl)c[nH]c34)c2F)cc1 [Compound 194]
1000 to 10000 nM | 1000 to 10000 nM | CN(C)C(=O)C[C@H](NC(=O)c1cccc(S(=O)(=O)Nc2ccc(Cl)c3c(Cl)c[nH]c23)c1F)c1ccccc1 [Compound 196]
1000 to 10000 nM | < 1000 nM | O=C(NCCc1ccccn1)c1ccc(S(=O)(=O)Nc2ccc(Cl)c3c(Cl)c[nH]c23)c(F)c1 [Compound 201]
1000 to 10000 nM | < 1000 nM | COCCOCCCNC(=O)c1cccc(S(=O)(=O)Nc2ccc(Cl)c3c(Cl)c[nH]c23)c1F [Compound 202]
1000 to 10000 nM | < 1000 nM | COCCOCCCNC(=O)c1ccc(S(=O)(=O)Nc2ccc(Cl)c3c(Cl)c[nH]c23)c(F)c1 [Compound 203]
< 1000 nM | < 1000 nM | O=C(NCCCC(=O)N1CCCC1)c1ccc(S(=O)(=O)Nc2ccc(Cl)c3c(Cl)c[nH]c23)c(F)c1 [Compound 207]
> 100000 nM | > 100000 nM | O=C(NCCCc1ccc(Cl)cc1)c1cccc(S(=O)(=O)Nc2ccc(Cl)c3c(Cl)c[nH]c23)c1F [Compound 208]
> 100000 nM | 1000 to 10000 nM | O=C(NCCCc1ccc(Cl)cc1)c1ccc(S(=O)(=O)Nc2ccc(Cl)c3c(Cl)c[nH]c23)c(F)c1 [Compound 209]
